Reference: patent US10874687B1 (Atea Pharmaceuticals, Inc., priority 2020, dated 2020)
Several values for one entry are separate records, joined by “and”; a condition that tells them apart may be missing. Identical values can stand only once. Like-named read-outs stand apart in the source and are kept apart here. Marks after values point to notes of the source that are not given here.

Tests used:
[1] = system: HCoV-229E; assay: microbe, parasite or virus in culture; assay type: cell-based, human coronavirus alpha-229E
[2] = system: HCoV-OC43; assay: microbe, parasite or virus in culture; assay type: cell-based, human coronavirus beta-OC43; conditions: Betacoronavirus 1, OC43, Huh-7, read-out: VYR EC90
[3] = system: HCoV-OC43; assay: microbe, parasite or virus in culture; assay type: cell-based, human coronavirus beta-OC43
[4] = system: MERS-CoV (EMC); assay: microbe, parasite or virus in culture; assay type: cell-based
[5] = system: SARS-CoV (Urbani); assay: microbe, parasite or virus in culture; assay type: cell-based, SARS-CoV-1
[6] = system: SARS-CoV-2 (WA1); assay: microbe, parasite or virus in culture; assay type: cell-based
[7] = system: HCoV-229E; assay: Protection of BHK-21 cells from virus-induced cytopathogenicity (MTT); assay type: cell-based, human coronavirus; conditions: for EC50: Human coronavirus 229E
Experimental: (§1) After a 3-day incubation at 37° C. cell viability was determined by the MTT method as described by Pauwels et al. (J. Virol. Methods 1988, 20, 309-321).
In an initial screening, BHK-21 cells acutely infected with a seasonal human alpha coronavirus, HCoV-229E, were exposed to serial dilutions of Compound 1A. […] No toxicity was detected from either drug.
(§2) BHK-21 cells: Test compounds were dissolved in DMSO at 100 mM and then diluted in Minimum Essential Medium with Earle's salts (MEM-E) containing 1 mM sodium pyruvate and 25 μg/mL kanamycin, supplemented with 10% FBS (growth medium) to final concentrations of 100, 20, 4 and 0.8 μM (two 24-well replica plates each). After BHK-21 cells were grown to confluency in 96-well plates, growth medium was replaced with fresh maintenance medium (growth medium with 1% inactivated FBS in place of 10% FBS) containing serially diluted test compound and HCoV-229E at a multiplicity of infection (MOI) of 0.01. Uninfected cells in the presence of serially diluted compound were used to assess the cytotoxicity of compounds. After a 3-day incubation at 37° C. in a humidified 5% CO2 atmosphere, cell viability was determined by the MTT method (Pauwels, R et al. J. Virol. Methods 20(4):309-321 (1988)).

[8] = system: HCoV; assay: Protection of MES-1 cells from virus-induced cytopathogenicity (MTT); assay type: cell-based; conditions: unidentified human coronavirus, 72 h, 50% protection of MES-1 cells, day 3 post-infection
Experimental: as §1

[9] = Cytotoxicity in mock infected BHK-21 cells (MTT); assay type: cell-based, hamster; conditions: hamster
Experimental: (§3) To determine the cytotoxicity, cells were seeded at an initial density of 1×10^6 cells/mL in 96 well plates containing Minimum Essential Medium with Earles's salts (MEM-E), L-glutamine, 1 mM sodium pyruvate and 25 mg/L kanamycin, supplemented with 10% fetal bovine serum. Cell cultures were then incubated at 37° C. in a humidified 5% CO2 atmosphere in the absence or presence of serial dilutions of test compounds. Cell viability was determined by the MTT method.
as §2

[10] = system: mock infected BHK cells; assay: Cytotoxicity in mock infected BHK-21 cells (MTT); assay type: cell-based, hamster; conditions: mock infected BHK cells; MTT; 3 days; Table 2B
Experimental: as §3, §2

[11] = Cytotoxicity in mock infected MES-1 cells (MTT); assay type: cell-based; conditions: Table 3A
Experimental: as §3

[12] = system: mock infected MES-1 cells; assay: Cytotoxicity in mock infected MES-1 cells (MTT); assay type: cell-based; conditions: 3 days, Table 3B
Experimental: as §3

[13] = system: HCoV-229E, HCoV-OC43, SARS-CoV-1 and SARS-CoV-2; assay: organism not typed; assay type: cell-based, human coronaviruses; conditions: read-out: individual EC90 values
[14] = system: Huh-7 cells; conditions: human
[15] = system: HCoV-229E; conditions: HCoV-229E in MRC-5 cells; cited from earlier work
[16] = in vitro; conditions: human
[17] = in vitro; conditions: human; remark: listed apart in the source
[18] = in vitro; conditions: human; remark: listed apart in the source
[19] = Plasma PK of metabolites in non-human primates after oral Compound 2A; conditions: cynomolgus, cynomolgus monkey, in vivo, 30 mg/kg

CNc1nc(N)nc2c1ncn2[C@@H]1O[C@H](CO[P@@](=O)(N[C@@H](C)C(=O)OC(C)C)Oc2ccccc2)[C@@H](O)[C@@]1(C)F [Compound 1A]
Selectivity Index (CC50/EC90) ([1]; HCoV-229E in Huh-7): >75
EC50 ([1]; Human coronavirus 229E, Huh-7, read-out: Neutral Red Assay EC50): 1700 nM
EC50 ([1]; Human coronavirus 229E, Huh-7, read-out: Neutral Red EC50): 1000 nM
EC90 ([1]; Human coronavirus 229E, Huh-7, read-out: VYR EC90): 710 nM
EC90 ([1]; Human coronavirus 229E, Huh-7, read-out: Virus Yield Reduction Assay EC90): 1000 nM
EC50 ([1]; Human coronavirus 229E, Huh-7, read-out: Visual EC50): 1000 nM
EC50 ([1]; read-out: Neutral Red Assay EC50): 1600 nM
EC90 [2]: 290 nM
EC50 ([3]; Betacoronavirus 1, OC43, RD, read-out: Neutral Red Assay EC50): 2800 nM
EC90 ([3]; Betacoronavirus 1, OC43, RD, read-out: Virus Yield Reduction Assay EC90): 2200 nM
Selectivity Index (CC50/EC90) ([3]; HCoV-OC43 in RD): >39
EC90 ([4]; Middle East respiratory syndrome-related coronavirus, Huh-7, read-out: average EC90, MERS-CoV in Huh-7): 36 µM
EC90 ([4]; read-out: average EC90, MERS-CoV in Huh-7): 37 µM
Selectivity Index ([5]; CC50/EC90, SARS-CoV (Urbani) in Huh7 cells): >250
EC90 ([5]; Severe acute respiratory syndrome coronavirus, Huh-7, read-out: Virus Yield Reduction Assay EC90): 340 nM and 0.2 µg/mL
EC90 ([6]; Severe acute respiratory syndrome coronavirus 2, HAE, read-out: EC90 of the single replicates): 570 nM
EC90 ([6]; Severe acute respiratory syndrome coronavirus 2, HAE, read-out: Virus Yield Reduction Assay EC90): 470 nM and 0.37 µg/mL
EC90 ([6]; Severe acute respiratory syndrome coronavirus 2, HAE, read-out: average EC90): 540 nM
EC90 ([6]; Severe acute respiratory syndrome coronavirus 2, HAE, read-out: replicate EC90 determinations): 0.33 µg/mL
EC90 ([6]; read-out: Virus Yield Reduction Assay EC90): 510 nM and 640 nM
EC90 ([6]; read-out: average EC90): 500 nM and ~550 nM
Selectivity Index ([7]; CC50/EC50, HCoV-229E in BHK-21): >58^c
EC50 ([7]; BHK, 72 h, 50% protection of BHK cells, MTT, day 3 post-infection, Table 2A, read-out: EC50): 1600 nM
EC50 ([7]; BHK, 72 h, 50% protection of BHK cells, MTT, day 3 post-infection, Table 2B, read-out: EC50): 2000 nM
EC50 ([7]; BHK-21, HCoV-229E in BHK-21, dye staining, average of 2 experiments, Table 5, read-out: EC50): 1800 nM
EC50 ([7]; BHK-21, HCoV-229E in BHK-21, the 2 experiments behind the average, read-out: EC50 of the single experiments): 1600 nM
EC50 ([8]; Table 3A): 1600 nM
EC50 ([8]; Table 3B): 2000 nM
CC50 at 3 days ([9]; mock infected BHK-21 cells, mock infected BHK cells, MTT, 3 days, Table 2A): > 100 µM
CC50 at 3 days ([9]; uninfected BHK-21 cells, BHK-21, Table 5): > 100 µM
CC50 [10]: > 100 µM
CC50 at 3 days [11]: > 100 µM
CC50 [12]: > 100 µM
EC90 [13]: 340 to 1200 nM
Neutral Red Assay CC50 [14]: >50^ μg/mL
EC50 [15]: > 100 µM
CC50 ([16]; Neutral Red Assay CC50): > 86 µM
CC50 ([16]; Neutral Red CC50): > 50 µM
CC50 ([16]; Visual CC50): > 50 µM
CC50 [17]: > 86 µM
CC50 [18]: > 50 µg/mL
AUC(0-t) [19]: 0.44 µM·h
Cmax [19]: 640 nM
Tmax [19]: 30 to 60 min
half-life [19]: 44.4 min
